Test results taken from PMC12683216, “Using High‐Throughput Screening to Identify Crosslinking Peptides That Control Cell‐Mediated Matrix Degradation” (Advanced Healthcare Materials, 2025).
Read-outs that look alike come from different tables or passages of the source. Values belong to the compound of their own block, whether it stands above or below them. Where a SMILES comes first, the peptide text is derived from it. [ ]: non-standard residue; d: D form. βAla = NCCC(=O)O

Columns and labels:
MMP-14 = test system: T1, MMP-14; test: Peptide degradation with added exogenous recombinant MMP-14 (LC-MS); format: in vitro ADME; conditions: human
T1 construct: purchased antibodies.com
Description: To verify that MMP‐14 can degrade the KLVAD‐LM and PanMMP peptides, recombinant MMP‐14 was added to the different peptides, both in PBS and in the Cell and Media culture conditions (Figure 7 ). Peptides were incubated under three conditions: in fresh cell culture media (“Blank”), in media with cells present (“Cells”), and in cell‐conditioned media (“Media”). This was done for both hMSCs and hUVECs, and was also done with and without the addition of exogenous MMP.
The extent of peptide degradation was quantified for samples both with and without the addition of exogenous MMP‐14. […] Error bars indicate ± standard deviation, N = 3 with technical triplicates.
hUVECs (75000 per well) or hMSCs (36000 per well) were seeded into a 48 well plate, and 500 µL media was added to the wells. […] The peptide libraries were dissolved at a stock solution of 10 mM total peptide content. For libraries containing 38 peptides, 95 µL of the stock solution was added to each well; for libraries with 19 peptides, 47.5 µL was added to each well, and media was taken at 0 and 24 h. Add 4 µL of acetic acid to all collected media in the LC‐MS plates and store them in a −80 °C freezer to prevent further proteolytic degradation. From each sample, 10 µL of crude solution was introduced by the LC‐MS through a Thermo Scientific Vanquish LC System (Thermo Fisher Scientific), which outputted to a Thermo Scientific LTQ XL Linear Ion Trap Mass Spectrometer (Thermo Fisher Scientific). The sampled mixture was trapped on a column (ProntoSIL C18 AQ, 120 Å, 3 µm, 2.0 x 50 mm HPLC Column, PN 0502F184PS030, MAC‐MOD Analytical Inc.). The samples were loaded onto the column with a solvent containing acetonitrile/water, 5:95 (v/v) containing 1% acetic acid at a flow rate of 300 µL min^−1 and held for 1 min. The sample was then eluted from the column with a linear gradient of 5–40% Solvent B (1% acetic acid in acetonitrile) at the same flow rate for 5 min. This was followed by a 1 min ramp up to 100% Solvent B, where it was re‐equilibrated with Solvent A (1% acetic acid) to 5% solvent B over the course of 1 min and held there for 2 min. The column temperature was kept at a constant 29 °C, and the mass spectrometer was operated in positive ion mode. Using a Heated ESI, the Source Voltage was set to 4.1 kV, and the capillary temperature was 350 °C. For non‐library degradation studies, 2.5 µL of 10 mM peptide stock solution for each peptide was added.
To assess the activity of the conditioned media, the media were divided into two equal portions. One portion was used for a standard degradation study, while the other was cultured for an additional 24 h before the PanMMP and KLVADLMASAE were added. After 24 h of incubation, the media were collected for further analysis. To assess the impact of recombinant MMP‐14 on PanMMP and KLVADLMASAE, recombinant MMP‐14 (antibodies.com) was dissolved in the media at a concentration of 0.5 nM. The remaining steps followed the standard degradation study protocol.
For all degradation studies using soluble peptides, a non‐proteolytically degradable NH2‐βFβAβAβAβAβAβA‐amide (βFβA6) peptide, where βF is β‐phenylalanine and βA is β‐alanine, was added at a 50 µM concentration and used as an internal standard. Peptide degradation ratios were measured by LC‐MS and analyzed by Xcalibur. The relative concentrations of the peptide were calculated by the ratio of the peak area of the peptide and the peak area of βFβA6.

[1] = Soluble peptide degradation, Media condition (cell-conditioned media, LC-MS); format: in vitro ADME, human
Outline: (§1)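 Pooled peptide library added to medium conditioned by hUVECs or hMSCs with cells removed. Fraction remaining after 24 h measured by LC-MS (positive-ion ESI). Value is peptide peak area relative to 50 µM non-degradable βFβA6 internal standard.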

[2] = as above; format: in vitro ADME, human; conditions: for remaining at 24 h, 50 µM / remaining at 24 h: human
Outline: as §1

hUVECs = test: Soluble peptide degradation, Cells condition (LC-MS); format: in vitro ADME, human; conditions: 24 h, LC-MS; for Fraction of peptide remaining after 24 hours: hUVEC Cells: ratio to βFβA6
Outline: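 Pooled synthetic TAILS-derived peptides added to hUVEC or hMSC cultures (Cells) or cell-free conditioned media (Media); MMP-14 inhibitor NSC 405 020 at 10 µM final. Samples taken at 0 and 24 h, acidified, analysed by LC-MS; peak areas normalised to 50 µM βFβA6 internal standard, 24 h/0 h gives fraction remaining.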

[3] = Figure 3C, individually synthesized soluble peptide, 50 µM, hMSC-conditioned media without cells, 24 h, LC-MS, ratio to βFβA6, N = 6
[4] = human, hMSC-conditioned media without cells (Media condition), Figure 3B heatmap, split-and-pool libraries KLVADX1X2ASAE in hMSC-conditioned media without cells, 24 h, LC-MS, ratio to βFβA6, N = 2, read-out: Fraction of peptide remaining after 24 hours: hMSC Media
[5] = human, Figure 2B heatmap, pooled TAILS-derived soluble peptides in 24 h hMSC-conditioned media without cells, 24 h, LC-MS, ratio to βFβA6 internal standard, 24 h / 0 h, N = 5, read-out: Fraction of peptide remaining at 24 hours: hMSC Media
[6] = Figure 2B heatmap, pooled TAILS-derived soluble peptides in 24 h hUVEC-conditioned media without cells, 24 h, LC-MS, ratio to βFβA6 internal standard, 24 h / 0 h, N = 5, read-out: Fraction of peptide remaining at 24 hours: hUVEC Media
[7] = Figure 3C, individually synthesized soluble peptide, 50 µM, hUVEC-conditioned media without cells, 24 h, LC-MS, ratio to βFβA6, N = 6
[8] = Figure 3C, 50 µM soluble peptide, 24 h, LC-MS, N = 6

remaining at 24 h, 50 µM (MMP-14; cells or culture medium, peptide remaining in hMSC conditioned media with added MMP‐14): 76%
remaining at 24 h, 50 µM (MMP-14; cells or culture medium, peptide remaining in hUVEC conditioned media with added MMP‐14): 69%
degraded across all Media conditions [1]: less than 10%
remaining at 24 h, 50 µM ([1]; human, cells or culture medium): 97%
degraded across all Media conditions [2]: less than 10%
remaining at 24 h, 50 µM ([2]; cells or culture medium): 93%
SMILES: CSCC[C@H](NC(=O)[C@H](CC(C)C)NC(=O)[C@H](CC(=O)O)NC(=O)[C@H](C)NC(=O)[C@@H](NC(=O)[C@H](CC(C)C)NC(=O)[C@H](CCCCN)NC(=O)CCNC(C)=O)C(C)C)C(=O)N[C@@H](C)C(=O)N[C@@H](CO)C(=O)N[C@@H](C)C(=O)N[C@@H](CCC(=O)O)C(=O)NCCC(N)=O [KLVAD-LM] (Ac-[βAla]KLVADLMASAE[βAla]-NH2)

Fraction of peptide remaining after 24 hours: hUVEC Cells (hUVECs; Figure 3B heatmap, split-and-pool libraries KLVADX1X2ASAE in media on hUVECs, N = 2): 0.91
Fraction of peptide remaining after 24 hours: hMSC Media [1, 3]: 0.92
remaining at 24 h [1, 4]: 84%
remaining at 24 h [1, 5]: 97%
metabolised at 24 h ([1]; human, Figure 2B screen, hMSC-conditioned media, 24 h, LC-MS): < 3%
degradation in Media condition ([2]; Figure 2B screen, hUVEC-conditioned media, 24 h, LC-MS): less than 3%
Fraction of peptide remaining after 24 hours: hUVEC Media ([2]; Figure 3B heatmap, split-and-pool libraries KLVADX1X2ASAE in hUVEC-conditioned media without cells, 24 h, LC-MS, ratio to βFβA6, N = 2): 0.98
remaining at 24 h, 50 µM ([2]; hUVEC-conditioned media without cells (Media condition), Figure 3C, individually synthesized soluble peptide, 50 µM, hUVEC-conditioned media without cells, 24 h, LC-MS, ratio to βFβA6, N = 6, read-out: Fraction of peptide remaining after 24 hours: hUVEC Media): 102%
remaining at 24 h [2, 6]: 100%
SMILES: CC(=O)NCCC(=O)N[C@@H](CCCCN)C(=O)N[C@@H](CC(C)C)C(=O)N[C@H](C(=O)N[C@@H](C)C(=O)N[C@@H](CC(=O)O)C(=O)N[C@@H](CC(N)=O)C(=O)N[C@@H](Cc1ccc(O)cc1)C(=O)N[C@@H](C)C(=O)N[C@@H](CO)C(=O)N[C@@H](C)C(=O)N[C@@H](CCC(=O)O)C(=O)NCCC(N)=O)C(C)C [KLVAD-NY] (Ac-[βAla]KLVADNYASAE[βAla]-NH2)

remaining at 24 h [1, 4]: 81%
remaining at 24 h, 50 µM ([1]; human, hMSC-conditioned media without cells (Media condition), Figure 3C, individually synthesized soluble peptide, 50 µM, hMSC-conditioned media without cells, 24 h, LC-MS, ratio to βFβA6, N = 6, read-out: Fraction of peptide remaining after 24 hours: hMSC Media): 96%
Fraction of peptide remaining after 24 hours: hUVEC Media [2, 7]: 1.11
remaining at 24 h ([2]; hUVEC-conditioned media without cells (Media condition), Figure 3B heatmap, split-and-pool libraries KLVADX1X2ASAE in hUVEC-conditioned media without cells, 24 h, LC-MS, ratio to βFβA6, N = 2, read-out: Fraction of peptide remaining after 24 hours: hUVEC Media): 118%
SMILES: CC(=O)NCCC(=O)N[C@@H](CCCCN)C(=O)N[C@@H](CC(C)C)C(=O)N[C@H](C(=O)N[C@@H](C)C(=O)N[C@@H](CC(=O)O)C(=O)N1CCC[C@H]1C(=O)N[C@@H](Cc1ccc(O)cc1)C(=O)N[C@@H](C)C(=O)N[C@@H](CO)C(=O)N[C@@H](C)C(=O)N[C@@H](CCC(=O)O)C(=O)NCCC(N)=O)C(C)C [KLVAD-PY] (Ac-[βAla]KLVADPYASAE[βAla]-NH2)

Fraction of peptide remaining after 24 hours: hUVEC Cells (hUVECs; Figure 3C, individually synthesized soluble peptide, 50 µM, media on hUVECs, N = 6): 0.77
degradation after 24 h, Cells + Inhibitor, cultured with hUVECs (hUVECs; NSC 405 020 10 µM): greater than 2%
remaining at 24 h, 50 µM (MMP-14; Figure 7 study, recombinant MMP-14 0.5 nM, 24 h, LC-MS, N = 3 with technical triplicates, read-out: peptide remaining in hMSC conditioned media with added MMP‐14): 84%
remaining at 24 h, 50 µM (MMP-14; Figure 7 study, recombinant MMP-14 0.5 nM, 24 h, LC-MS, N = 3 with technical triplicates, read-out: peptide remaining in hUVEC conditioned media with added MMP‐14): 72%
peptide remaining, Media condition, hMSCs [1, 8]: 85%
Fraction of peptide remaining after 24 hours: hMSC Media [1, 3]: 0.85
remaining at 24 h, 50 µM ([1]; human, hMSC-conditioned media without cells, no exogenous MMP-14, Figure 7 study, 24 h, LC-MS, N = 3 with technical triplicates, read-out: peptide remaining in hMSC conditioned media without exogenous MMP-14): 85%
remaining at 24 h [1, 5]: 86%
peptide remaining, Media condition, hUVECs [2, 8]: 89%
Fraction of peptide remaining after 24 hours: hUVEC Media [2, 7]: 0.89
remaining at 24 h, 50 µM ([2]; hUVEC-conditioned media without cells, no exogenous MMP-14, Figure 7 study, 24 h, LC-MS, N = 3 with technical triplicates, read-out: peptide remaining in hUVEC conditioned media without exogenous MMP-14): 78%
remaining at 24 h [2, 6]: 93%
SMILES: CC[C@H](C)[C@H](NC(=O)CNC(=O)[C@H](CCC(N)=O)NC(=O)[C@@H]1CCCN1C(=O)CNC(=O)CCNC(C)=O)C(=O)N[C@@H](Cc1c[nH]c2ccccc12)C(=O)NCC(=O)N[C@@H](CCC(N)=O)C(=O)NCCC(N)=O [PanMMP, reference compound] (Ac-[βAla]GPQGIWGQ[βAla]-NH2)
